pKi: −log10 of the molar value. Like-named read-outs stand apart in the source and are kept apart here.
Assays:
β adrenoceptors = test: radioligand binding studies in lung membrane (Table A, binding affinity)
Source text: The results are summarised in Table A. Generally, the activity is better for the trans than the cis isomer.

[1] = test system: acetylcholine induced bronchoconstriction; test: inhibition of acetylcholine induced bronchoconstriction, Konzett and Rossler method (Table B); type: in vivo, Male Hartley Guinea Pigs; settings: IV; for inhibition in vivo at 0.13 µmol/kg / inhibition in vivo at 0.42 µmol/kg / inhibition in vivo at 0.46 µmol/kg / inhibition in vivo at 4.18 µmol/kg / inhibition in vivo at 0.48 µmol/kg / inhibition in vivo at 4.8 µmol/kg: Cavia porcellus
Experimental: Male Hartley Guinea Pigs (450-500 g) were anaesthetised with ethyl carbamate and prepared for recording bronchoconstriction according to Konzett and Rossler method (Naunym Schmiedebergers Arch. Exp. Path. Pharmakol (1940) 195, 71). To abolish spontaneous respiration, an injection IV of vecuronium bromide (2 mg/kg) was made. Bronchoconstriction was induced by IV injection of Acetylcholine and the animals received one dose of β agonist compound (IV) 5 minutes later.

[2] = 5 min, 0.13 μmol/kg, 5 mn, read-out: bronchoconstriction protection, score 5 mn
[3] = 5 min, 0.42 μmol/kg, 5 mn, read-out: bronchoconstriction protection, score 5 mn
[4] = 0.25 h, 0.13 μmol/kg, 15 mn, read-out: bronchoconstriction protection, score 15 mn
[5] = 0.25 h, 0.42 μmol/kg, 15 mn, read-out: bronchoconstriction protection, score 15 mn
[6] = 0.5 h, 0.13 μmol/kg, 30 mn, read-out: bronchoconstriction protection, score 30 mn
[7] = 0.5 h, 0.42 μmol/kg, 30 mn, read-out: bronchoconstriction protection, score 30 mn

SMILES | pKi (β adrenoceptors) | bronchoconstriction protection, duration of action ([1]; 0.13 μmol/kg) [mn] | bronchoconstriction protection, duration of action ([1]; 0.42 μmol/kg) [mn] | inhibition in vivo at 0.13 µmol/kg [1, 2] [%] | inhibition in vivo at 0.42 µmol/kg [1, 3] [%] | inhibition in vivo at 0.13 µmol/kg [1, 4] [%] | inhibition in vivo at 0.42 µmol/kg [1, 5] [%] | inhibition in vivo at 0.13 µmol/kg [1, 6] [%] | inhibition in vivo at 0.42 µmol/kg [1, 7] [%] | further results
COc1cc([C@H]2CC[C@H](CNCC(O)c3ccc(O)c(CO)c3)O2)cc(OC)c1OC (relative stereo) [Example 2 (trans), 2-(3',4',5'-trimethoxyphenyl)-5-[N-[β-(3'-hydroxymethyl-4'-hydroxy-phenyl)-β-hydroxy-ethyl]-aminomethyl]-tetrahydrofuran] | 7.10 | 30 | > 50 | > 75 | > 75 | 50 to 75 | > 75 | 20 to 50 | > 75 | –
COc1ccc([C@H]2CC[C@H](CNCC(O)c3ccc(O)c(CO)c3)O2)cc1 (relative stereo) [Example 9 (trans), 2-(4'-methoxyphenyl)-5-[N-[β-(3'-hydroxymethyl-4'-hydroxy-phenyl)-β-hydroxy-ethyl]-aminomethyl]-tetrahydrofuran] | 6.23 | – | – | – | – | – | – | – | – | bronchoconstriction protection, duration of action ([1]; 0.46 μmol/kg): > 30 mn; inhibition in vivo at 0.46 µmol/kg ([1]; 5 min, 0.46 μmol/kg, 5 mn, read-out: bronchoconstriction protection, score 5 mn): > 75%; inhibition in vivo at 0.46 µmol/kg ([1]; 0.25 h, 0.46 μmol/kg, 15 mn, read-out: bronchoconstriction protection, score 15 mn): 50 to 75%; inhibition in vivo at 0.46 µmol/kg ([1]; 0.5 h, 0.46 μmol/kg, 30 mn, read-out: bronchoconstriction protection, score 30 mn): 20 to 50%
COc1cc([C@H]2CC[C@H](CCCNCC(O)c3ccc(O)c(CO)c3)O2)cc(OC)c1OC (relative stereo) [Example 15 (trans), 2-(3',4',5'-trimethoxyphenyl)-5-[-N-[β-(3'-hydroxymethyl-4'-hydroxy-phenyl)-β-hydroxy-ethyl]-aminopropyl]-tetrahydrofuran] | 6.12 | – | 20 | – | > 75 | – | 50 to 75 | – | < 20 | bronchoconstriction protection, duration of action ([1]; 4.18 μmol/kg): > 50 mn; inhibition in vivo at 4.18 µmol/kg ([1]; 5 min, 4.18 μmol/kg, 5 mn, read-out: bronchoconstriction protection, score 5 mn): > 75%; inhibition in vivo at 4.18 µmol/kg ([1]; 0.25 h, 4.18 μmol/kg, 15 mn, read-out: bronchoconstriction protection, score 15 mn): > 75%; inhibition in vivo at 4.18 µmol/kg ([1]; 0.5 h, 4.18 μmol/kg, 30 mn, read-out: bronchoconstriction protection, score 30 mn): 50 to 75%
COc1ccc([C@H]2CC[C@@H](CNCC(O)c3ccc(O)c(CO)c3)O2)cc1OC (relative stereo) [Example 8 (cis), 2-(3',4'-dimethoxyphenyl)-5-[N-[β-(3'-hydroxymethyl-4'-hydroxy-phenyl)-β-hydroxyethyl]-aminomethyl]-tetrahydrofuran] | 5.96 | – | – | – | – | – | – | – | – | bronchoconstriction protection, duration of action ([1]; 0.48 μmol/kg): < 30 mn; inhibition in vivo at 0.48 µmol/kg ([1]; 5 min, 0.48 μmol/kg, 5 mn, read-out: bronchoconstriction protection, score 5 mn): 50 to 75%; inhibition in vivo at 0.48 µmol/kg ([1]; 0.25 h, 0.48 μmol/kg, 15 mn, read-out: bronchoconstriction protection, score 15 mn): 20 to 50%; inhibition in vivo at 0.48 µmol/kg ([1]; 0.5 h, 0.48 μmol/kg, 30 mn, read-out: bronchoconstriction protection, score 30 mn): < 20%

Now from value to compound, other results behind:

pKi (β adrenoceptors) | SMILES | bronchoconstriction protection, duration of action ([1]; 0.13 μmol/kg) [mn] | bronchoconstriction protection, duration of action ([1]; 0.42 μmol/kg) [mn] | inhibition in vivo at 0.13 µmol/kg [1, 2] [%] | inhibition in vivo at 0.42 µmol/kg [1, 3] [%] | inhibition in vivo at 0.13 µmol/kg [1, 4] [%] | inhibition in vivo at 0.42 µmol/kg [1, 5] [%] | inhibition in vivo at 0.13 µmol/kg [1, 6] [%] | inhibition in vivo at 0.42 µmol/kg [1, 7] [%] | further results
5.60 | CC(C)(C)NCC(O)c1ccc(O)c(CO)c1 (stereo not drawn) [Salbutamol, reference compound] | 10 | 30 | > 75 | > 75 | < 20 | > 75 | < 20 | < 20 | –
6.39 | OCc1cc(C(O)CNCC2CCC(c3ccccc3)O2)ccc1O (stereo not drawn) [Example 1, 2-phenyl-5-[N-[β-(3'-hydroxymethyl-4'-hydroxy-phenyl)-β-hydroxy-ethyl]aminomethyl]-tetrahydrofuran] | – | – | – | – | – | – | – | – | bronchoconstriction protection, duration of action ([1]; 4.8 μmol/kg): 0 mn; inhibition in vivo at 4.8 µmol/kg ([1]; 5 min, 4.8 μmol/kg, 5 mn, read-out: bronchoconstriction protection, score 5 mn): < 20%; inhibition in vivo at 4.8 µmol/kg ([1]; 0.25 h, 4.8 μmol/kg, 15 mn, read-out: bronchoconstriction protection, score 15 mn): < 20%; inhibition in vivo at 4.8 µmol/kg ([1]; 0.5 h, 4.8 μmol/kg, 30 mn, read-out: bronchoconstriction protection, score 30 mn): < 20%

Reference: patent US5447942A, “N-derivatives of (phenylethyl-β-ol) amine, a process for their preparation and pharamaceutical compositions containing the same” (Societe de Conseils de Recherches et d'Applications …, priority 1992, dated 1995)
